Assay results as given in patent publication US20180273573A1, “INHIBITORS OF MENAQUINONE BIOSYNTHESIS” (Memorial Sloan-Kettering Cancer Center, priority 2015, published 2018).
≈ marks a conversion by molar mass, not a printed value. Where two headings read alike, the source gives them in different places.

Legend:
B. subtilis (ATCC 6051) = experiment: MIC, Alamar blue assay; format: cell-based; details: Bacillus subtilis, ATCC6051
[1] = system: MRSA, S. aureus (ATCC BAA-1762); experiment: MIC, Alamar blue assay; format: cell-based, methicillin-resistant S. aureus; details: Staphylococcus aureus
[2] = system: B. subtilis, MRSA, M. tuberculosis and E. coli; experiment: Antibacterial activity and MK4 growth rescue, statements over all bacteria tested; format: cell-based; details: for increase in MIC values when complemented with exogenous menaquinone-4: B. subtilis, MRSA, M. tuberculosis
[3] = system: menaquinone levels in S. aureus ATCC BAA-1762 (MRSA); experiment: Menaquinone levels by LC-MS/MS after lipid extraction; format: cell-based; details: for decrease in menaquinone-8: MRSA, FIG. 9, two independent experiments
Text: The 1959 Blight/Dyer lipid extraction protocol was followed. Menaquinone levels were quantified by LC-MS/MS using standard curves generated with MK4 and MK9. A distribution of MKs are present in untreated MRSA with MK8 most abundant.
Standard error shown for two independent experiments. *p≤0.05, **p≤0.01.
To provide direct insight into the mode of action of the MenE inhibitors, we analyzed the effect of OSB-AMS on menaquinone-levels in S. aureus by tandem MS (FIG. 2), as follows. Cultures of S. aureus ATCC BAA-1762 (5 mL in Synthetic Broth medium with 10% glucose) were incubated overnight in a 37° C. shaker in the presence or absence of OSB-AMS (15.6 μg/mL final concentration). The Blight and Dyer (1959) lipid extraction protocol was used to isolate the menaquinone-containing fraction from the cells.^(5) Briefly, 0.75 mL of 1:2 (v/v) CHCl3:MeOH was added to 0.2 mL of culture. The mixture was vortexed thoroughly, and 0.25 mL of CHCl3 was added followed by further vortexing after which 0.25 mL of H2O was added. The mixture was then vortexed and centrifuged at 1000 rpm for 5 minutes at room temperature. The bottom phase was recovered, transferred to a glass vial and 200 μL was analyzed by APCI LC-MS/MS in positive ion mode using a Thermo TSQ Quantum Access (Thermo-Fisher) Triple Quadrupole Mass Spectrometer. Menaquinone levels were quantified using standard established for MK4 and MK9. Samples were introduced into the mass spectrometer by flow injection at 100 μL/min with 2:1 MeOH/CHCL3 as the solvent. Multiple Reaction Monitoring (MRM) was performed at 30 eV. MK4, MK5 and MK6 were quantified using the standard curve for MK4 whereas MK7, MK8, and MK9 were quantified using MK9.

M. tuberculosis (H37Rv) = experiment: MIC, Alamar blue assay; format: cell-based; details: Mycobacterium tuberculosis
wild-type E. coli MenE = wild-type E. coli MenE (Escherichia coli, UniProt P37353); experiment: Direct fluorescent binding assay (intrinsic tryptophan fluorescence)
Chain of wild-type E. coli MenE (P37353 whole entry): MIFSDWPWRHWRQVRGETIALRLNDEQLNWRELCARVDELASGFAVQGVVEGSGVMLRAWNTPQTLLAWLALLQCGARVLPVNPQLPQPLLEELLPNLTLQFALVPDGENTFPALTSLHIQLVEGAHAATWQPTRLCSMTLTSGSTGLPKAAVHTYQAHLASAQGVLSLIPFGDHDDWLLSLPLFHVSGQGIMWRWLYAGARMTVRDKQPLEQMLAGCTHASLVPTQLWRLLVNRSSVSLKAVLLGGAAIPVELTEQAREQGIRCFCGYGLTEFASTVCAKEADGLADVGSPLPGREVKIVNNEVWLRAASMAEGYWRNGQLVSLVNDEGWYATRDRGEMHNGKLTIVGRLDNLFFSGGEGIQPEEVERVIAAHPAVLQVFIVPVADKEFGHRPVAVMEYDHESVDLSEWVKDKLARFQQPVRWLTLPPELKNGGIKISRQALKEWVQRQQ
Protocol: Difluoroindandiol 109 was titrated into a solution of wild-type E. coli MenE and the change in fluorescence was measured using a Quanta Master fluorimeter at excitation and emission wavelengths of 280 and 332 nm, respectively. Data was analyzed using the Morrison equation.
Instead, to determine the Kd for 109, we used a direct binding assay in which the change in the intrinsic tryptophan fluorescence of ecMenE was monitored (see FIG. 14 for binding isotherm and data). […] The solution was stirred continuously, and fluorescence measurements were taken with a Quanta Master fluorimeter using excitation and emission wavelengths of 280 and 332 nm, respectively. Slit widths were optimized to 4 and 2 nm for excitation and emission, respectively. Data were corrected for the inner filter effect and then fit to the following equation using MATLAB: […]

E. coli = experiment: MIC, Alamar blue assay; format: cell-based, E. coli (K-12); details: Escherichia coli; Table E2; ~90% cell death
E. coli MenE (ecMenE) = E. coli MenE (ecMenE) (Escherichia coli, UniProt P37353); experiment: MenE-MenB coupled assay (enzyme inhibition, catalytic parameters); details: read-out: E. coli MenE IC50; Table E6
Chain of E. coli MenE (ecMenE) (P37353 whole entry): as above
Protocol: Measurements were performed in triplicate for each compound.
Analysis of the catalytic efficiency (kcat/KM) of the mutant enzymes compared to wild type MenE was performed using the MenE-MenB coupled assay described above.

wild-type ecMenE = wild-type ecMenE (Escherichia coli, UniProt P37353)
Chain of wild-type ecMenE (P37353 whole entry): as above
Protocol: The direct binding of inhibitors to MenE was quantified using isothermal titration calorimetry (ITC). Measurements were made with a MicroCal VP-ITC instrument at 25° C. Inhibitor stock solutions (1 mM in NaHPO4 buffer pH 7.4 containing 150 mM NaCl and 1 mM MgCl2) were titrated in 4 μL increments into a 50 μM solution of MenE in pH 7.4 20 mM sodium phosphate buffer containing 150 mM sodium chloride and 1 mM magnesium chloride. The data were fit to a single binding site model with the Origin software package.

[4] = Table E5, with addition of exogenous menaquinone-4 (10 μg/mL), read-out: B. subtilis MIC (in parentheses)
[5] = Table E5, without menaquinone-4, read-out: B. subtilis MIC
[6] = Table E5, with addition of exogenous menaquinone-4 (10 μg/mL), read-out: MRSA MIC (in parentheses)
[7] = Table E5, without menaquinone-4, read-out: MRSA MIC
[8] = Table E5, with addition of exogenous menaquinone-4 (10 μg/mL), read-out: M. tuberculosis MIC (in parentheses)
[9] = Table E5, without menaquinone-4, read-out: M. tuberculosis MIC
[10] = Table E2, ~90% cell death, read-out: B. subtilis MIC
[11] = Table E2, ~90% cell death, read-out: MRSA MIC
[12] = Table E2, ~90% cell death, read-out: M. tuberculosis MIC

| Compound | MIC (B. subtilis (ATCC 6051); [4]) [µg/mL] | MIC (B. subtilis (ATCC 6051); [5]) [µg/mL] | MIC [1, 6] [µg/mL] | MIC [1, 7] [µg/mL] | increase in MIC values when complemented with exogenous menaquinone-4 [2] | decrease in menaquinone-8 [3] | MIC (M. tuberculosis (H37Rv); [8]) [µg/mL] | MIC (M. tuberculosis (H37Rv); [9]) [µg/mL] | MIC (B. subtilis (ATCC 6051); [10]) [µg/mL] | MIC [1, 11] [µg/mL] | MIC (E. coli) [µg/mL] | pKa (physchem) | MIC (M. tuberculosis (H37Rv); [12]) [µg/mL] | further results |
| --- | --- | --- | --- | --- | --- | --- | --- | --- | --- | --- | --- | --- | --- | --- |
| Nc1ncnc2c1ncn2[C@@H]1O[C@H](COS(=O)(=O)NC(=O)CCC2(O)c3ccccc3C(O)C2(F)F)[C@@H](O)[C@H]1O (mixture of isomers) [Compound 2] | 62.5 | 15.6 | 62.5 | 15.6 | four-fold increase | 31% | 62.5 | 15.6 | – | – | – | – | – | – |
| Nc1ncnc2c1ncn2[C@@H]1O[C@H](COS(=O)(=O)NC(=O)CCC2(O)c3ccccc3C(O)C2(F)F)[C@@H](O)[C@H]1O (mixture of isomers) [Compound 109] | – | – | – | – | – | – | – | – | 31.2 (≈ 53.3 µM) | 15.6 (≈ 26.6 µM) | > 500 | 11.5 | 15.6 (≈ 26.6 µM) | Kd (wild-type E. coli MenE): 120 ± 23 nM |
| Nc1ncnc2c1ncn2[C@@H]1O[C@H](COS(=O)(=O)NC(=O)CCC(=O)c2ccccc2-c2c(O)c(=O)c2=O)[C@@H](O)[C@H]1O (stereo in doubt) [Compound 106] | – | – | – | – | – | – | – | – | 250 (≈ 415 µM) | > 500 | > 500 | 1.3 | > 500 | cellular activity against any bacteria tested [2]: did not show cellular activity |
| Nc1ncnc2c1ncn2[C@@H]1O[C@H](COS(=O)(=O)NC(=O)CC[C@@]2(O)c3ccccc3[C@H](O)C2(F)F)[C@@H](O)[C@H]1O [(1R,3S)-2, 5′-O—(N-[3″-((1R,3S)-2′″,2′″-difluoro-1′″,3′″-dihydroxy-1′″-indanyl)propanoyl]sulfamoyl)adenosine] | 31.2 (≈ 53.2 µM) | 15.6 (≈ 26.6 µM) | 31.2 (≈ 53.2 µM) | 15.6 (≈ 26.6 µM) | 2- to 4 fold | – | 62.5 (≈ 107 µM) | 15.6 (≈ 26.6 µM) | – | – | – | – | – | IC50 (E. coli MenE (ecMenE)): 5000 nM |
| Nc1ncnc2c1ncn2[C@@H]1O[C@H](COS(=O)(=O)NC(=O)CC[C@]2(O)c3ccccc3[C@@H](O)C2(F)F)[C@@H](O)[C@H]1O [(1S,3R)-2, 5′-O—(N-[3″-((1S,3R)-2′″,2′″-difluoro-1′″,3′″-dihydroxy-1′″-indanyl)propanoyl]-sulfamoyl)adenosine] | 31.2 (≈ 53.2 µM) | 15.6 (≈ 26.6 µM) | 31.2 (≈ 53.2 µM) | 31.2 (≈ 53.2 µM) | – | – | 62.5 (≈ 107 µM) | 31.2 (≈ 53.2 µM) | – | – | – | – | – | rescue by exogenous menaquinone-4 ([2]; cultures complemented with exogenous menaquinone-4): Some rescue |
| Nc1ncnc2c1ncn2[C@@H]1O[C@H](COS(=O)(=O)NC(=O)CCC(=O)c2ccccc2C(=O)O)[C@@H](O)[C@H]1O [OSB-AMS, o-succinylbenzoate-adenenosinemonosulfamate, reference compound] | – | – | – | – | – | 2.5 fold | – | – | 62.5 (≈ 114 µM) | 31.2 (≈ 56.8 µM) | > 500 | 4 | 125 (≈ 227 µM) | Kd (wild-type ecMenE): 44 ± 11 nM; ΔG (wild-type ecMenE; ITC, 25° C., pH 7.4): -10.0 kcal/mol; ΔH (wild-type ecMenE; ITC, 25° C., pH 7.4): -2.0 ± 0.1 kcal/mol; decrease in the levels of the menaquinones ([3]; OSB-AMS 15.6 μg/mL, overnight, 37° C.): 3-5 fold |
